For orientation: Kd means the concentration at which binding is half-saturated.

Experimental findings from patent US20250346890A1, “LEUKEMIA TREATMENT” (Deutsches Krebsforschungszentrum, priority 2019, published 2025) are described below.

In one data set the test system is ID1. Briefly: qRT-PCR analysis of ID1 in THP-1 cells. It counts as cell-based, human. As to conditions: ATRA treatment. The method, then: (§1) Cultured cells were lysed in Macherey-Nagel RAI buffer containing 1% β-mercaptoethanol and total RNAs were isolated using NucleoSpin RNA isolation kit (Macherey-Nagel 740955). Reverse transcription and PCR amplification were performed. Primers used in this study are listed in Supplementary Table 1. Graphs show relative gene expressions to GAPDH. […] Statistical analyses were performed using PRISM7 software with unpaired t-test or one-way ANOVA test.

The next data set deals with Smad1. Briefly: Western blot of pSmad1 and tSmad1 in THP-1 cells. The class given is cell-based, human. Particulars: THP-1 cells. The protocol: Cultured cells were rinsed with cold PBS and lysed in Triton lysis buffer ([…] Tris-Cl, pH 7.5, 1% Triton X-100, 150 mM NaCl, 1 mM EDTA, 1 mM EGTA, 1 mM β-glycerophosphate, 1 mM Na3 VO4) or RIPA buffer with complete Protease Inhibitor Cocktail (Roche 11697498001). Lysates were mixed with Laemmli buffer with β-mercaptoethanol and boiled at 95° C. for 5 min to prepare SDS-PAGE samples. Western blot images were acquired with SuperSignal West pico ECL (ThermoFisher 34580) or Clarity Western ECL (Biorad 1705061) using LAS-3000 system (FujiFilm). Quantification of blots was done using ImageJ software.
(§2) THP-1 cells were treated with 0.3, 1.0 and 3.0 μg ml^−1 goat polyclonal anti-RSPO2 antibodies (R&D systems AF3266) or goat polyclonal GFP antibodies (ABIN 100085). After 48 hours, medium was replaced including fresh antibodies—and incubated another 24 hours. Western blot analysis and FACS analyses were performed as discussed above.
On the technique in general: Immunoblotting shows a protein as a band on a membrane.

For a further data set, the system named is THP-1 cells. The data set can be described thus: Monocyte-macrophage differentiation of THP-1 cells (FACS / qRT-PCR of CD14, CD11B). It counts as cell-based, human. The protocol:
as §1
For analyzing macrophage differentiation of THP-1, cells were harvested, pelleted and resuspended in ice-cold blocking buffer (PBS supplemented with 1% BSA and 0.1% NaN3). Cells were treated with Fc Receptor Binding Inhibitor as recommended by the manufacturer (eBioscience 14916173) and stained directly with FITC/APC-conjugated antibodies diluted in blocking buffer or with non-conjugated primary antibodies followed by fluorochrome-labeled secondary antibodies. Isotype-matched antibodies were used as controls. Dead cells were excluded by counterstaining with propidium iodide. For analyzing apoptosis of THP-1, cells were fixed in 4% PFA, permeabilized by MeOH and blocked with PBS supplemented with 1% BSA and 0.1% Tween-20. Cells were stained with anti-active Caspase-3 antibody and fluorochrome-labeled secondary antibody. FACS Samples were analyzed with FACSCalibur or FACSCanto (BD Biosciences). 10,000 events per samples were acquired, and results were processed with Cell Quest or FACSDiva software (BD Biosciences). For BMP4 stimulation, cells were treated with 5 and 25 ng ml^−1 recombinant human BMP4 protein (R&D systems 314-BP). 100, 300 and 1000 nM LDN […] (Tocris 6053) were used for rescue assay. For the THP-1 cell number quantification and differentiation validation in vivo, bone marrow cells were harvested from tibias of NSG mice and red blood cells were removed by ACK Lysing Buffer (Gibco A1049201). Cells were stained and analyzed as above. Here, 50,000 PI-negative events per samples were acquired.
as §2
The sequences of shRSPO2 and shControl (Table 1) were synthesized, inserted into the transfer plasmid Tet-pLKO-puro (Addgene 21915) and validated by sequencing. Lentivirus was produced with the 3rd generation lentiviral system according to the protocol available at the Trono lab as described (www.epfl.ch/labs/tronolab/). THP-1 cells were infected with lentivirus with 8 μg ml^−1 Polybrene (Sigma TR-1003) and selected with 0.5 μg ml^−1 puromycin (Calbiochem 540411). Single cell clones were obtained by limiting dilutions. The shRNA expression of clones was validated by monitoring RSPO2 expression after doxycycline treatment (1.0 μg ml^−1) for 3 days.
Background: Real-time PCR tracks product formation cycle by cycle.

The next data set concerns AML cells. The data set can be described thus: Cytarabine (AraC) treatment of THP-1 TetOn-shRNA clones. The class given is cell-based. Particulars: Dox and AraC treatment.
The subject of the next data set is BMP signaling. The data set can be described thus: BMP-reporter assay in Xenopus embryos. The class given is in vivo, Xenopus laevis. The method, then: In vitro fertilization, microinjection and culture of Xenopus embryos were performed as previously described (Gawantka et al. (1995), EMBO J 14, 6268-6279). X. laevis embryos were microinjected with reporter DNAs, in vitro transcribed mRNAs or antisense morpholino oligonucleotide (Mo) using Harvard Apparatus microinjection system. Mos for rspo2 (Kazanskaya et al (2004, loc. cit.), lrp6, chordin, bmp4, znrf3 and standard control were purchased from GeneTools. rspo2^ΔTSP Mo was designed based on rspo2 sequence. X. laevis 4-cell stage embryos were microinjected 5 nl per each blastomere equatorially and cultured until indicated stages. Equal amount of total mRNA or Mo were injected by adjustment with ppl or standard control Mo. Scoring of phenotypes was executed blind, and data are representative images from two independent experiments. Embryos in each image were selected using Magnetic Lasso tool or Magic Wand tool of Adobe Photoshop CS6 software, and pasted into the uniform background color for presentation. Statistical analyses show Chi-square tests.
Background: In a reporter assay the amount or activity of a reporter protein is the signal.

The subject of a further data set is ALK3. The data set can be described thus: Western blot analysis of ALK3 in injected Xenopus embryos. As to conditions: Xenopus embryos coinjected with alk3-EYFP mRNA. It counts as in vivo, Xenopus laevis. The method, then:
Injected Xenopus embryos were harvested at stage 15 to 18, homogenized in NP-40 lysis buffer (2% NP-40, 20 mM Tris-HCl pH 7.5, 150 mM NaCl, 10 mM NaF, 10 mM Na3VO4, 10 mM sodium pyrophosphate, 5 mM EDTA, 1 mM EGTA, 1 mM PMSF, and complete Protease Inhibitor Cocktail with a volume of 20 μl per embryo. Lysates were cleared with CFC-113 (Honeywell 34874), followed by centrifugation (14,000 rpm, 10 min at 4° C.), boiling at 95° C. for 5 min with NuPAGE Sample Buffer. 0.5-1 embryos per lane were loaded for SDS-PAGE analysis.

Data set [1] concerns the target T1, recombinant human RSPO2 (Peprotech 120-43) (human, UniProt Q6UXX9 22-243).
T1 construct: also called R-spondin 2
Briefly: in vitro binding assay: plate-coated recombinant RSPO2, ALK3^ECD-AP conditioned medium, bound AP chemiluminescence; Scatchard plot. The method, then:
High binding 96-well plates (Greiner M5811) were coated with 2 μg ml⁻¹ of recombinant human RSPO1 (Peprotech 120-38), RSPO2 (Peprotech 120-43), RSPO3 (Peprotech 120-44) or FGF8b (Peprotech 100-25) recombinant protein reconstituted in bicarbonate coating buffer (50 mM NaHCO₃, pH 9.6) overnight at 4° C. Coated wells were washed three times with TBST (TBS, 0.1% Tween-20) and blocked with 5% BSA in TBST for 1 hour at room temperature. 1.5 U ml⁻¹ of ALK3^ECD-AP or control conditioned medium was incubated overnight at 4° C. Wells were washed six times with TBST and bound AP activity was measured by the chemiluminescent SEAP Reporter Gene Assay kit (Abcam ab 133077). For ZNRF3-ALK3 binding assay, plates were coated with recombinant human ZNRF3 Fc Chimera protein (R&D systems 7994-RF). ALK3^ECD-AP was preincubated with RSPO2-Flag, RSPO2^ΔTSP-Flag conditioned medium or recombinant RSPO protein prior to treatment. Control conditioned medium and vesicles were used as control. […] Statistical analyses show unpaired t-tests.

Data set [2] concerns the target T2, human ALK3-HA expressed in HEK293T cells (human, UniProt P36894 24-532).
T2 construct: whole, on cells; also called HA-tagged ALK3; BMPR1A
Briefly: cell surface binding assay on HEK293T cells transfected with human ALK3-HA. The method, then: Cell surface binding assays were carried essentially out as previously described (Dosch et al. (1997), Development 124, 2325-2334). In brief, human ALK3-HA and Xenopus tropicalis LGR4 DNA were transfected in HEK293T cells, and incubated with 1.5 U ml⁻¹ conditioned media for 3 hours on ice. After several washes and crosslinking, cells were treated with 2 mM Levamisole for 20 min to inactivate endogenous AP activities and developed with BM-Purple (Sigma 11442074001). Cells were mounted with Fluoromount G. Images were obtained using LEICA DMIL microscope/Canon DS126311 camera.

`CC1=C(/C=C/C(C)=C/C=C/C(C)=C/C(=O)O)C(C)(C)CCC1` [ATRA, (2E,4E,6E,8E)-3,7-dimethyl-9-(2,6,6-trimethylcyclohexen-1-yl) nona-2,4,6,8-tetraenoic acid]: in the data set on ID1, the ID1 expression entry is recorded as “induced”. Besides, the Smad1-phosphorylation result in the data set with Smad1 is listed as “induced Smad1-phosphorylation”. Moreover, in the data set on THP-1 cells (THP-1 TetOn-shRSPO2 clones, Dox+ATRA), the “macrophage differentiation, combination with Dox-induced shRSPO2” value is listed as “cooperated in inducing macrophage differentiation”. For the same molecule, the CD11B expression entry in the data set with THP-1 cells (THP-1 cells, ATRA treatment) is “induced”.

For `Nc1ccn([C@@H]2O[C@H](CO)[C@@H](O)[C@@H]2O)c(=O)n1` [cytarabine], the “sensitivity of AML cells to cytarabine upon loss of RSPO2” value in the data set on AML cells was “sensitize”.

Consider “rspo2 Mo: antisense morpholino against Xenopus rspo2, GCCGTCCAAATGCAGTTTCAAC (SEQ ID NO:9) (all phosphorodiamidate morpholino (PMO))”, for which the “endogenous BMP signaling” value with BMP signaling (Xenopus neurulae, injection) was “increased endogenous BMP signaling”. In addition, in the data set on BMP signaling (coinjection with bmp4 Mo), the “BMP signaling reporter, coinjection of bmp4 Mo and rspo2 Mo” value is listed as “canceled each other out”. Further, the ALK3-EYFP protein levels result with ALK3 is given as “increased ALK3-EYFP protein levels”.

B1: ALK3^ECD-AP (extracellular domain of ALK3 fused to alkaline phosphatase, conditioned medium) (receptor, UniProt P36894 24-152, looked up)
chain: QNLDSMLHGTGMKSDSDQKKSENGVTLAPEDTLPFLKCYCSGHCPDDAINNTCITNGHCFAIIEEDDQGETTLASGCMKYEGSDFQCKDSPKAQLRRTIECCRTNLCNQYLQPTLPPVVIGPFFDGSIR
notes: extracellular domain; also called BMPR1A extracellular domain; not shown: alkaline phosphatase (AP) fusion partner from AP-pCS2+
For B1, in data set [1], the Kd is approximately 4.8 nM.

B2: RSPO2^ΔTSP (human RSPO2 TSP1 domain deletion mutant) (ligand, not shown: small tags and cut ends)
chain: QGNRWRRSKRASYVSNPICKGCLSCSKDNGCSRCQQKLFFFLRREGMRQYGECLHSCPSGYYGHRAPDMNRCARCRIENCDSCFSKDFCTKCKVGFYLHRGRCFDECPDGFAPLEETMECVE
notes: also called RSPO2^ΔTSP-Flag
In the case of B2, the binding result in data set [2] is given as “no binding (tested: 1.5 U ml^-1 conditioned media)”.
